The supplement of paper PMC11208160

Test: recombinant barcode read abundance after kanamycin selection (control-corrected) (log10(CPM+1)); higher = more efficient recombination; sequences stand for … in AGTGCAGAGAAAATCGGCCAGTTTTCTCTGCCTGCAGTCCGCATGCCGT…ATTTATGCAGCGGACTGCCTTTCTCCCAAAGTGATAAACCGGACAGTATCATGGACCGGTTTTCCCGGTAATCCGTATTTGCAAGGTTGGTTTCACT; site = the 11-nt target
In short: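 Two replicates per condition were plated: chloramphenicol/ampicillin LB agar for the control, and chloramphenicol/ampicillin/kanamycin with 0.1 mM IPTG for selection. The pooled E. coli screen behind them paired targets with IS621 bridge RNA target-binding loops. Recombination efficiency is expressed from averaged, control-corrected barcode counts per million at recombinant junctions, as log10(CPM+1).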

| Sequence | recombinant barcode read abundance (log10) |
| --- | --- |
| GAGCCCACTTGGGTTCTAACCTGTTGCCTCT [GAGCCCACTAG_LTGcore_CT_RTGcore_AG] (site GAGCCCACTAG) (LTG core: CT, RTG core: AG) | 0 |
| GAGCCCACTTGGGTTCTAACCTGTTGCCTTG [GAGCCCACTAG_LTGcore_CT_RTGcore_CA] (site GAGCCCACTAG) (LTG core: CT, RTG core: CA) | 0.835 |
| GAGCCCACTTGGGTTCTAACCTGTTGCCTTT [GAGCCCACTAG_LTGcore_CT_RTGcore_AA] (site GAGCCCACTAG) (LTG core: CT, RTG core: AA) | 0.37 |
| GAGCCCAGGTGGGTTCTAACCTGTTGCCTCC [GAGCCCACTAG_LTGcore_GG_RTGcore_GG] (site GAGCCCACTAG) (LTG core: GG, RTG core: GG) | 0.596 |
| GAGCCCAGTTGGGTTCTAACCTGTTGCCTAC [GAGCCCACTAG_LTGcore_GT_RTGcore_GT] (site GAGCCCACTAG) (LTG core: GT, RTG core: GT) | 0.0734 |
| GAGGCCTAATGGGTTCTAACCTGTTGCCATT [GAGGCCTCTTG_LTGcore_AA_RTGcore_AA] (site GAGGCCTCTTG) (LTG core: AA, RTG core: AA) | 0.223 |
| GAGGCCTACTGGGTTCTAACCTGTTGCCAAG [GAGGCCTCTTG_LTGcore_AC_RTGcore_CT] (site GAGGCCTCTTG) (LTG core: AC, RTG core: CT) | 0.0351 |
| GAGGCCTACTGGGTTCTAACCTGTTGCCAGT [GAGGCCTCTTG_LTGcore_AC_RTGcore_AC] (site GAGGCCTCTTG) (LTG core: AC, RTG core: AC) | 0.0631 |
| GAGGCCTATTGGGTTCTAACCTGTTGCCAAG [GAGGCCTCTTG_LTGcore_AT_RTGcore_CT] (site GAGGCCTCTTG) (LTG core: AT, RTG core: CT) | 0.196 |
| GAGGCCTATTGGGTTCTAACCTGTTGCCAAT [GAGGCCTCTTG_LTGcore_AT_RTGcore_AT] (site GAGGCCTCTTG) (LTG core: AT, RTG core: AT) | 0.122 |
| GAGGCCTCATGGGTTCTAACCTGTTGCCAAG [GAGGCCTCTTG_LTGcore_CA_RTGcore_CT] (site GAGGCCTCTTG) (LTG core: CA, RTG core: CT) | 0.318 |
| GAGGCCTGATGGGTTCTAACCTGTTGCCAAG [GAGGCCTCTTG_LTGcore_GA_RTGcore_CT] (site GAGGCCTCTTG) (LTG core: GA, RTG core: CT) | 0.0459 |
| GAGGCCTGCTGGGTTCTAACCTGTTGCCAAG [GAGGCCTCTTG_LTGcore_GC_RTGcore_CT] (site GAGGCCTCTTG) (LTG core: GC, RTG core: CT) | 0.235 |
| GAGGCCTGTTGGGTTCTAACCTGTTGCCAAG [GAGGCCTCTTG_LTGcore_GT_RTGcore_CT] (site GAGGCCTCTTG) (LTG core: GT, RTG core: CT) | 0.586 |
| GAGGCCTTATGGGTTCTAACCTGTTGCCAAG [GAGGCCTCTTG_LTGcore_TA_RTGcore_CT] (site GAGGCCTCTTG) (LTG core: TA, RTG core: CT) | 0.145 |
| GAGGCCTTGTGGGTTCTAACCTGTTGCCAAG [GAGGCCTCTTG_LTGcore_TG_RTGcore_CT] (site GAGGCCTCTTG) (LTG core: TG, RTG core: CT) | 0.0876 |
| GAGTCCAACTGGGTTCTAACCTGTTGCGTAG [GAGTCCACTAC_LTGcore_AC_RTGcore_CT] (site GAGTCCACTAC) (LTG core: AC, RTG core: CT) | 0.282 |
| GAGTCCAAGTGGGTTCTAACCTGTTGCGTAG [GAGTCCACTAC_LTGcore_AG_RTGcore_CT] (site GAGTCCACTAC) (LTG core: AG, RTG core: CT) | 0.075 |
